Reference: patent US7247734B2 (Vernalis (Cambridge) Limited, priority 2001, dated 2007)
Where two headings read alike, the source gives them in different places.

Legend:
[1] = system: HCT116 human colon tumour cells; assay: 96 h growth inhibition assay (SRB), HCT116; format: cell-based; settings: Homo sapiens, HCT-116; HCT116, 96 h
Method: (§1) The growth inhibition assay employed was based on that described previously (Kelland et al., 1993). HCT116 and HT29 human colon tumour cells (American Tissue Culture Collection) were seeded into 96-well tissue culture plates (approximately 1600–2000 cells per well) and allowed to attach for 36 hours. Eight wells were treated with a single concentration from a range of compound concentrations and incubated for 96 hours. Cells were fixed using ice cold 10% trichloroacetic acid (TCA). Plates were then washed five times with water, air dried, and stained with 0.4% sulphorhodamine B (SRB) in 1% acetic acid for 10 minutes. The SRB stain was solubilised in 10 mM Tris-HCl and the absorbance measured at 540 nm using a Titertek Multiscan MCC/340 MKII plate reader (Flow Laboratories, IEC, Basingstoke, N.H.). The absorbance values correspond to total protein content and are used as a measure of cell growth.

[2] = system: HT29 human colon tumour cells; assay: 96 h growth inhibition assay (SRB), HT29; format: cell-based; settings: Homo sapiens, HT-29; HT29, 96 h
Method: as §1

yeast HSP90 = biological target: T1, yeast HSP90 (Saccharomyces cerevisiae, UniProt P02829); assay: Malachite green HSP90 ATPase assay; format: biochemical; settings: 1 mM ATP, ±SD if n=3–5
T1 construct: made in house; host or cells: E. coli
T1 sequence (P02829 whole entry, looked up): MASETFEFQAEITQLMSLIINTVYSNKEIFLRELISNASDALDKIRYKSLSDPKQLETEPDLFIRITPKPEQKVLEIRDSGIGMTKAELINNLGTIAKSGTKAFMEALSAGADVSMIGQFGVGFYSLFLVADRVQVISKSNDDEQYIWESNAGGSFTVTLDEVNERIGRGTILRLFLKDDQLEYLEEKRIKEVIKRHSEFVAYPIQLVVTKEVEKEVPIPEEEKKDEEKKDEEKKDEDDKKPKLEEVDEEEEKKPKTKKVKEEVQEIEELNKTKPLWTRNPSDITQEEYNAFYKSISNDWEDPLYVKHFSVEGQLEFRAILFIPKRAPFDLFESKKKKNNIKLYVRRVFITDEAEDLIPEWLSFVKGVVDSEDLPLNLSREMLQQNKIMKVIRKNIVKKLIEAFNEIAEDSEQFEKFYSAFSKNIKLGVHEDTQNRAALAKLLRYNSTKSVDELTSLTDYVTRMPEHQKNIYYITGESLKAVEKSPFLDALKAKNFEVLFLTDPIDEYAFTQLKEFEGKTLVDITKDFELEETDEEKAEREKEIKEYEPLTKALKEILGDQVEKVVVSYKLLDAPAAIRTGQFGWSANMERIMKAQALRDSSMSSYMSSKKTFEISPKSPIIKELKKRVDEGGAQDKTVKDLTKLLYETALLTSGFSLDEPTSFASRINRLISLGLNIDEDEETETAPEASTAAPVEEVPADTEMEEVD
Procedure, shortened: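 E. coli-expressed yeast HSP90 ATPase activity measured as released inorganic phosphate by malachite green–molybdate colour (610 nm), with sodium citrate added to suppress non-enzymatic ATP hydrolysis. Assay buffer 100 mM Tris-HCl pH 7.4, 20 mM KCl, 6 mM MgCl2; compounds screened at 40 μM final.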

SMILES	IC50 [1] [µM]	IC50 [2] [µM]	IC50 (yeast HSP90; malachite green assay, read-out: HSP90 ATPase inhibition IC50) [µM]	IC50 (yeast HSP90; HSP90 ATPase inhibition IC50, malachite green assay) [µM]
Cc1[nH]nc(-c2ccc(O)cc2O)c1-c1ccc2c(c1)OCCO2 [CCT018157]	26	14	60.5 ± 8	
CCc1cc(-c2n[nH]c(C)c2-c2ccc3c(c2)OCCO3)c(O)cc1O [CCT018159, 4-[4-(2,3-Dihydro-benzo[1,4]dioxin-6-yl)-5-methyl-1H-pyrazol-3-yl]-6-ethyl-benzene-1,3-diol]	4.5	13.5		9.2 ± 0.65
